Test results published in patent publication US8877946B2, “Benzylidene-indolinone compounds and their medical use” (National University of Singapore, priority 2011, dated 2014).
Converted amounts (≈) assume the structure as drawn. Where two headings read alike, the source gives them in different places.

Assays:
Hep G2 = assay: MTT antiproliferative assay on Hep G2 cells; format: cell-based; conditions: Homo sapiens, HepG2, 72 h
Text: (§1) MTT was purchased from DUCHEFA Biochemie ([…]). Sunitinib, and sodium dodecyl sulfate, bovine serum albuminwere obtained from Sigma Aldrich (Singapore). Sorafenib was purchase from Ontario Chem. Fetal bovine serum (FBS) was obtained from Invitrogen. Human hepatocellular carcinoma cells (HuH-7 and Hep G2), and human diploid fibroblast strain (IMR 90). HuH7 was obtained as gifts from Dr Ho Han Kiat, Department of Pharmacy, NUS. IMR90 and Hep G2 were purchased from American Type Culture Collection (ATCC). HuH-7 cells were cultured in DMEM (Dulbecco's Modified Eagle Medium, high glucose) with 10% v/v fetal bovine serum (FBS), 100 mg/L penicillin G and 100 mg/L streptomycin. IMR 90 cell were cultured in EMEM (Eagle's Minimum Essential Medium), with 10% v/v FBS and 100 mg/L penicillin G and 100 mg/L streptomycin. The cells were sub-cultured when HuH7 or Hep G2 reached a density of 70-80×10^5 cell/T75 flask, and IMR 90 reached 20×10^5 cell/T75 flask. Cells were used within 2-10 passages for viability experiments.
(§2) The anti-proliferative activity of the test compounds were determined by the MTT assay. An aliquot (200 μL, 3×10^4 cells/mL for HuH7, 3.75×10^4 cells/mL for Hep G2, and 2×10^4 cells/mL for IMR 90) of medium was added to each well of the microtitre plate. […] The existing medium was removed from each well and replaced by fresh medium (200 μL) containing a known concentration of test compound. The final concentration of DMSO in each well was maintained at 0.5% v/v. (1% v/v was also utilized if the compounds were not soluble) The test compounds were incubated with the cells for another 72 h at 37 deg C., 5% CO2. The medium was then removed from the well and replaced with FBS free medium (200 μL) and MTT (50 μL of 2 mg/mL solution in phosphate buffer saline, pH 7.4). The phosphate buffer saline comprises 10 mM of potassium phosphate and 137 mM sodium chloride. After incubation (3 h) at 37 deg C., 5% CO2, the supernatant was removed and a solution of 200 μL DMSO and 25 μL Sorenson buffer (0.1 M glycine, 0.1 M sodium chloride, adjusted to pH 10.5 with 0.1 M sodium hydroxide) was added to dissolve the formazan crystals in each well. Vehicle control were cells grown in 1% v/v DMSO/Medium for 72 h, 37 deg C., 5% CO2 while blank controls were wells that contained only 200 μL DMSO and 25 μL Sorenson buffer. Absorbances were measured at 570 nm on a microplate reader (Tecan, Infinite 200). The viability of cells at a given concentration of test compound was determined from the expression:
(§3) [formula] where abs_compound=absorbance of wells containing cells and test compound, abs_vehicle (Not the same as above. Change to abs_vehicle)=absorbance of vehicle control and abs_blank=absorbance of blank control.
(§4) Each concentration of test compound was evaluated at least 3 times on separate occasions, and two different stock solution were used. The IC50 value (concentration that inhibited 50% of cell growth) was determined from the sigmoidal curve obtained by plotting percentage viability versus logarithmic concentration of test compound using GraphPad Prism 5 (San Diego, USA).

CYP1A1 = assay: EROD assay, induction of CYP1A1 activity in HuH7 cells; format: cell-based, human; conditions: for induction of CYP450 (CYP1A1, EROD) activity: broad range of concentrations spanning growth inhibitory concentrations, FIG. 2
Text: The induction of CYP1A1 activity was monitored by the 7-ethoxyresorufin O-deethylase (EROD) assay. EROD is a CYP1A1 enzyme and induction of its activity would result in the formation of more resorufin, a fluorescent compound. By monitoring resorufin levels in cells that are exposed to test compound and comparing the levels with those in untreated cells, it is possible to identify compounds that induce EROD activity.
Readings were taken at λexcitation of 530 nm and λemission of 590 nm on a fluorometer (Name the plate reader). Background fluorescence of the test compound was determined at the same wavelengths to take into account its contribution to the observed readings. Readings of “blank” wells that contained only media and “control” wells with only HuH7 cells in media (with 1% DMSO) were also determined. β-napthoflavone (BNF), a known inducer of CYP1A1 activity (give ref) was used as a positive control. The extent to which EROD activity was induced is given by the expression: Degree of induction=(FCells+Test Compound−FBlank)/(FControl−FBlank)
Where Fcells+test compound=fluorescence of wells containing treated cells; FBlank=fluorescence of well containing media only; FControl=fluorescence readings of wells containing untreated cells. The test compounds were not fluorescent at the excitation and emission wavelengths used in this assay. Two separate determinations were made for each concentration of test compound.

phospho-STAT3 (Tyr 705) = assay: Detection of phosphorylated STAT3 by immunoblot in HepG2; format: cell-based, human; conditions: FIG. 3
Procedure: Rabbit polyclonal antibodies to STAT3 was obtained from Santa Cruz Biotechnology (Santa Cruz, Calif.), and rabbit monoclonal antibodies against phospho-STAT3 (Tyr 705) were purchased from Cell Signaling Technology (Beverly, Mass.).
For detection of phopho-STAT 3 and STAT 3, treated whole-cell extracts were lysed in lysis buffer (20 mM Tris (pH 7.4), 250 mM NaCl, 2 mM EDTA (pH 8.0), 0.1% Triton X-100, 0.01 mg/ml aprotinin, 0.005 mg/ml leupeptin, 0.4 mM PMSF, and 4 mM NaVO4). Lysates were then spun at 14,000 rpm for 10 min to remove insoluble material and resolved on a 7.5% SDS gel. After electrophoresis, the proteins were electrotransferred to a nitrocellulose membrane, blocked with 5% nonfat milk, and probed with anti-phospho-STAT 3 and anti-STAT 3 antibodies (1:1,000) overnight at 4° C. The blot was washed, exposed to HRP-conjugated secondary antibodies for 1 hr, and finally examined by chemiluminescence (ECL; GE Healthcare, Little Chalfont, Buckinghamshire, UK).

IMR 90 = assay: MTT antiproliferative assay on non-malignant IMR 90 fibroblasts; format: cell-based; conditions: non-malignant human lung fibroblast IMR 90, MTT, 72 h
Text: as §1, §2, §3, §4

AFP mRNA = assay: Determination of AFP mRNA levels by quantitative real-time PCR in HuH7 cells; format: cell-based, human; conditions: 10 μM, 24 h, FIG. 1
Text: The primer sequences were: […] reverse); [NT] (Human GADPH forward); [NT] (Human GADPH reverse).

HuH7 cells = assay: MTT antiproliferative (growth inhibition) assay on HuH7 cells; format: cell-based, human; conditions: for IC50: Homo sapiens, Huh-7, MTT
How it was run: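 Cells were exposed to compound for 72 h at 37° C, 5% CO2, with 0.5% v/v DMSO (1% if poorly soluble), then given MTT for 3 h. Formazan was dissolved in DMSO/Sorenson buffer and absorbance read at 570 nm; IC50 from sigmoidal fits of % viability versus log concentration.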

[1] = Aqueous solubility on Multiscreen Solubility filter plates; format: physicochemical; conditions: aqueous solution on Multiscreen Solubility filter plates, aqueous buffer, kinetic from dmso stock, mean of 3 determinations
Procedure: (§5) Solubility and PAMPA permeability (Pe) are important physicochemical indicators of drug-like character. Determination of aqueous solubility was carried out on Multiscreen® Solubility filter plates (Millipore-MSSLBPC10) from Millipore Corporation (MA, USA). The protocol (PC2445EN00, Millipore Corporation) was followed. Pe determinations were carried out on MultiScreen-IP PAMPA assay (donor) plates (MAIPNTR10) and MultiScreen Receiver Plates (MATRNPS50) from Millipore Corporation (USA) with 1% lecithin (L-α-phosphatidylcholine from lyophilized powder of egg yolk, Sigma Aldrich, USA) in dodecane (ReagentPlus®, Sigma Aldrich, USA) as lipid barrier.

PAMPA permeability (Pe) = format: physicochemical; conditions: for Pe (×10^−6 cm/s): 1% lecithin in dodecane, mean of 3 determinations
Procedure: as §5

[2] = 72 h (Table 9), read-out: IC50 (μM) HuH7
[3] = 72 h incubation, mean and SD of 3 or more independent determinations (Tables 1-8), read-out: IC 50

Compound	IC50 (Hep G2) [µM]	IC50 (IMR 90) [µM]	IC50 (HuH7 cells; [2]) [µM]	IC50 (HuH7 cells; [3]) [µM]	further results
CN1C(=O)/C(=C/c2cccc(C(F)(F)F)c2)c2ccc(Cl)cc21 [Compound 1-10, (E) 6-Chloro-1-methyl-3-(3-trifluoromethyl-benzylidene)-1,3-dihydro-indol-2-one, reference compound]	0.94 ± 0.18	9.23 ± 0.88	0.46 ± 0.06	0.46 ± 0.06	induction of EROD activity at 0.05 μM (CYP1A1; 0.05 μM, declined at higher concentrations): unusual (but reproducible) induction; induction of CYP450 (CYP1A1, EROD) activity (CYP1A1): did not induce CYP450 activity; effect on p-STAT3 levels (constitutive STAT3 activation) (phospho-STAT3 (Tyr 705)): did not; effect on AFP mRNA levels (AFP mRNA): reduced AFP mRNA by almost half
O=C1Nc2ccc(Cl)cc2/C1=C\c1cccc(C(F)(F)F)c1 [Compound 2-7, (E)-5-Chloro-3-(3-(trifluoromethyl)benzylidene)-1,3-dihydro-indol-2-one, reference compound]	1.5 ± 0.06	9.13 ± 1.12	0.81 ± 0.11	0.81 ± 0.11	
O=C1Nc2cc(F)ccc2/C1=C\c1ccccc1F [Compound 3-2, (E)-6-Fluoro-3-(2-fluoro-benzylidene)-1,3-dihydro-indol-2-one]	1.82 ± 0.63	2.06 ± 0.33	0.91 ± 0.15	0.91 ± 0.15	
CNS(=O)(=O)c1cccc(/C=C2/C(=O)Nc3cc(F)ccc32)c1 [Compound 3-10, (E)-3-(6-Fluoro-2-oxo-1,2-dihydro-indol-3-ylidenemethyl)-N-methyl-benzenesulphonamide]	4.4 ± 0.43	10.4 ± 0.23	0.48 ± 0.01	0.48 ± 0.01	solubility at 3 h ([1]; pH 7.4, agitation time 3 h): 37.6 µM (≈ 12.5 µg/mL); solubility at 24 h ([1]; pH 7.4, agitation time 24 h): 6.32 µM (≈ 2.1 µg/mL); induction of CYP450 (CYP1A1, EROD) activity (CYP1A1): did not induce CYP450 activity; decline of Pe with time (PAMPA permeability (Pe); 6 h to 16 h): ½; Pe (×10^−6 cm/s) (PAMPA permeability (Pe); pH 7.4, 6 h): 12.9 ×10^−6 cm/s; Pe (×10^−6 cm/s) (PAMPA permeability (Pe); pH 7.4, 16 h): 5.95 ×10^−6 cm/s
CCNS(=O)(=O)c1cccc(/C=C2/C(=O)Nc3cc(F)ccc32)c1 [Compound 3-11, (E)-3-(6-Fluoro-2-oxo-1,2-dihydro-indol-3-ylidenemethyl)-N-ethyl-benzenesulfonamide]	1.61 ± 0.16		0.39 ± 0.07	0.39 ± 0.07	
CCCNS(=O)(=O)c1cccc(C=C2C(=O)Nc3cc(F)ccc32)c1 [Compound 3-12, E/Z-3-(6-Fluoro-2-oxo-1,2-dihydro-indol-3-ylidenemethyl)-N-propyl-benzenesulfonamide]	0.72 ± 0.12		0.12 ± 0.01	0.12 ± 0.01	potency relative to 1-10 on HuH7 (HuH7 cells; compared with 1-10 (original lead)): 4 ×
CC(C)NS(=O)(=O)c1cccc(/C=C2/C(=O)Nc3cc(F)ccc32)c1 [Compound 3-13, (E)-3-(6-Fluoro-2-oxo-1,2-dihydro-indol-3-ylidenemethyl)-N-isopropyl-benzenesulfonamide]	4.22 ± 0.48		2.29 ± 0.06	2.29 ± 0.06	
CNS(=O)(=O)c1cccc(/C=C2/C(=O)Nc3ccc(F)cc32)c1 [Compound 4-16, (E)-3-(5-Fluoro-2-oxo-1,2-dihydro-indol-3-ylidenemethyl)-N-methyl-benzenesulphonamide]	9.11 ± 0.32	9.92 ± 0.57	1.18 ± 0.02	1.18 ± 0.02	
O=C1Nc2cc(F)c(F)cc2/C1=C\c1cccc(C(F)(F)F)c1 [Compound 7-6, (E)-5,6-Difluoro-3-(3-trifluoromethyl-benzylidene)-1,3-dihydro-indol-2-one]	0.69 ± 0.02	8.53 ± 0.6	0.82 ± 0.2	0.82 ± 0.2	
CNC(=O)c1cc(Oc2ccc(NC(=O)Nc3ccc(Cl)c(C(F)(F)F)c3)cc2)ccn1 [Sorafenib, reference compound]	5.6 ± 0.21	11 ± 1.72	5.35 ± 0.49		
CCN(CC)CCNC(=O)c1c(C)[nH]c(/C=C2\C(=O)Nc3ccc(F)cc32)c1C [sunitinib, reference compound]	5.07 ± 0.07	6.32 ± 1.24	5.6 ± 0.12		
